Laboratory results taken from patent US7973014B2, “Medicinal composition containing ginseng secondary glycosides, its preparation method and application” (National Institute of Pharmaceutical R&D Co., Ltd., priority 2005, dated 2011).
Read-outs that look alike come from different tables or passages of the source. Marks after values point to notes of the source that are not given here.

Assays:
[1] = tested on: acute myocardial infarction in dogs; experiment: Range of acute myocardial infarction in dogs, N-BT staining; format: in vivo, dog; details: 5 mg/kg
Method: (§1) Test dogs were divided into the following 8 groups, 6 dogs per group: (1) blank control group, 3 ml/kg physiological saline; (2) 5 mg/kg Diltiazem group; (3) 200 mg/kg “Di'ao Xinxuekang” group; (4) 200 mg/kg ginseng root total ginsenosides (briefly referred as root total ginsenosides) group; (5) 200 mg/kg ginseng stem/leave total ginsenosides (briefly referred as stem/leave total ginsenosides) group; (6) 25 mg/kg total secondary ginsenosides group; (7) 50 mg/kg total secondary ginsenosides group; and (8) 100 mg/kg total secondary ginsenosides group. All test drugs were formulated with distilled water to have the same volume (3 ml/kg), and were administered through duodenum.
Recording was completed at 180 minutes after administration of drug, heart was taken out immediately, cardiac ventricle was cross-sectioned parallel to coronary sulcus under heart ligature to form 5 slices, which were placed in N-BT staining solution and stained at room temperature for 15 minutes. Infarction zone (N-BT non-staining zone) and non-infarction zone (N-BT staining zone) at both sides of each slice of cardiac muscle were measured by using a multimedia color pathologic image analysis system to calculate the area of each slice of cardiac muscle, the total area of the cardiac ventricle and the total area of the infarction zones. The percentages of infarction zones based on the cardiac ventricle and on the whole heart were calculated.
(§2) The test results were statistically analyzed, and t-test was used to determine the significance.

[2] = tested on: thrombosis in experimental rat jugular arteriovenous bypass; experiment: Thrombosis in rat jugular arteriovenous bypass; format: in vivo; details: for inhibition at 50 mg/kg: Rattus norvegicus
Method: 70 Rats, half male and half female, weighting 250-300 g, were randomly divided into 7 groups, 10 rats per group, and fed for one week in advance. The said 7 groups included high, middle and low dosage groups of the total secondary ginsenosides (200, 100 and 50 mg/kg), and control groups: Diltiazem group (50 mg/kg), Di'ao Xinxuekang group (200 mg/kg), root total ginsenosides group (200 mg/kg) and blank control group (water). administered All the drugs and controls were administered through intragastrical perfusion for 7 days.
Measurement of the rate for inhibition of thrombosis: on the 7th day after administration of drug, 30 minutes after the administration, each of rats was anesthetized with sodium pentobarbital, the left external jugular vein and right common carotid artery were separated, three segments of polyethylene tubes were used to form cannula, and then 5 cm weighed 4-suture was placed in the middle segment. These polyethylene tubes were filled with heparin-physiological saline (50 U/ml). When one end of the tube was inserted into the external jugular vein, one end of the tube was clamped and the end fixed by suture was inserted into the right common carotid artery. After this operation, bleeding was performed immediately and then stopped 15 minutes later, the suture was taken out quickly and weighed. The wet weight of thrombus was calculated by subtracting the suture weight from the total weight. The thrombosis inhibition rate was calculated according to the following formula. Inhibition rate (%)=[(Thrombus weight of the control group)−(Thrombus weight of the group administered with drug)]/(Thrombus weight of the control group)×100% Results: […]

[3] = tested on: coronary blood flow in experimental myocardial ischemia dogs; experiment: Coronary blood flow in experimental myocardial ischemia dogs; format: in vivo, dog; details: 5 mg/kg
Method: as §1
(§3) Animals each was anesthetized with sodium pentobarbital (30 mg/kg), operated to form pericardium bed; left circumflex artery was separated, an electromagnetic flow meter probe was placed therein to measure cardiac coronary blood flow (CCBF); middle section of anterior descending coronary artery was separated, braided for ligation to create an experimental acute myocardial ischemia model; a multipoint fixed epicardial lead was sutured and connected with a multichannel electrophysiolograph to record epicardial electrogram. Coronary artery was ligated for 15 minutes, and recorded as control value before administration of drug, test drug or physiological saline was administered via duodenum, 30 mapping point epicardial electrograms were recorded at 15, 30, 45, 60, 90, 120, 180 minutes after the administration of drug, and the degree of myocardial ischemia (Σ-ST, total increase of mv number in S-T section) and the range of myocardial ischemia (N-ST, total increase of point numberin S-T section) were calculated. Blood samples were taken at orifice of coronary sinus vein by cannulation via external jugular vein before ischemia, at 15 minutes after ischemia (before administration of drug), and at 0, 30, 60, 90, 120, 180 minutes after administration of drug, the contents of oxygen in the coronary venous blood were measured by oxyhemograph; cannulation was made to common carotid artery, where the contents of […] in the arterial blood were measured, which together with coronary blood flow were used to calculate myocardial oxygen consumption (MOC). Blood samples were taken at the abovementioned time points to measure the levels of serum creatine kinase (CK) and lactic acid dehydrogenase (LDH); and the levels of blood plasma endothelin (ET), thromboxane B2 (TXB2) and 6-keto-prostaglandin F1a (6-Keto-PGF1a) were measured by an automatic γ-counter radioimmunologically.

[4] = tested on: acute myocardial ischemia induced by coronary artery ligation in anesthetized dogs; experiment: Myocardial ischemia induced by coronary artery ligation in anesthetized dogs, epicardial electrogram mapping; format: in vivo, dog; details: 5 mg/kg
Method: as §1, §3, §2

[5] = tested on: rat arrhythmia induced by BaCl2; experiment: Arrhythmia induced by BaCl2 in rats; format: in vivo; details: 50 mg/kg
Method: 70 SD rats, including half male and half female, were randomly divided into: control group, Diltiazem group, 200 mg/kg Di'ao Xinxuekang group, 200 mg/kg the root total ginsenosides group, and 200, 100, 50, 25 mg/kg dosage groups of the total secondary ginsenosides. On the 7th day of administration of drug, 30 minutes after the administration of drug, each of the rats was anesthetized by intraperitoneal injection of 300 mg/kg 10% chloral hydrate, fixed in supine position on rat bench. The chart speed was set at 50 mm/s, and the sensitivity was set at 20 mm/mv. After printing under standard voltage, normal II Lead electrocardiogram was recorded for a certain period, then the rat was administered with 4 mg/kg barium chloride via sublingual vein and observed immediately to record the electrocardiograms at 1, 5, 10, 15, 20, 25, 30 minutes after the administration of barium chloride. The heart rate was calculated and compared with the reference value before administration, and the onset time and time period of arrhythmia were compared as well. The incidence rates of ventricular premature beat (VP), ventricular tachycardia (VT) and ventricular fibrillation (VF) were calculated.

cancer cells = details: cited from earlier work
platelets = details: cited from earlier work
thrombin = thrombin (Homo sapiens, UniProt P00734); details: cited from earlier work
[6] = oral administration, human body; cited from earlier work

For `COc1ccc([C@@H]2Sc3ccccc3N(CCN(C)C)C(=O)[C@@H]2OC(C)=O)cc1` [Diltiazem], the Infarction zone area [1] was 266.25 ± 63.4*** mm^2, the Infraction zone/cardiac ventricle [1] was 5.36 ± 1.70 and the Infraction zone/heart [1] was 2.27 ± 0.83. The “Wet weight of thrombus” value ([2]; 50 mg/kg intragastric, 7 days) was 0.0200 ± 0.005 g, the inhibition at 50 mg/kg ([2]; po, 168 h, 50 mg/kg intragastric, 7 days, read-out: Inhibition rate) was 32.9% and the inhibition at 50 mg/kg ([2]; 50 mg/kg, read-out: inhibition rate of thrombosis) was 33%. For the same compound, the coronary blood flow ([3]; 30 min after drug) was 110.36 ± 58.20 ml/100 g · min^−1, the “coronary blood flow change rate” value ([3]; 30 min after drug) was 108.70 ± 3.32 % and the coronary blood flow ([3]; 60 min after drug) was 119.11 ± 61.62 ml/100 g · min^−1. For the same compound, the “coronary blood flow change rate” value ([3]; 60 min after drug) was 117.06 ± 5.17 %, the coronary blood flow ([3]; 90 min after drug) was 122.97 ± 64.44 ml/100 g · min^−1 and the “coronary blood flow change rate” value ([3]; 90 min after drug) was 120.06 ± 7.27 %. For the same compound, the coronary blood flow ([3]; 120 min after drug) was 119.15 ± 65.51 ml/100 g · min^−1, the “coronary blood flow change rate” value ([3]; 120 min after drug) was 116.97 ± 7.33 % and the coronary blood flow ([3]; 180 min after drug) was 112.10 ± 60.59 ml/100 g · min^−1. The “coronary blood flow change rate” value ([3]; 180 min after drug) was 112.21 ± 6.46 %, the coronary blood flow ([3]; after ischemia before drug) was 101.82 ± 54.71 ml/100 g · min^−1 and the “coronary blood flow change rate” value ([3]; after ischemia before drug) was 110.34 ± 4.17%. The coronary blood flow ([3]; before ischemia (normal value)) was 92.07 ± 46.98 ml/100 g · min^−1, the N-ST change rate ([4]; 15 min after drug) was 89.60 ± 8.40 % and the “acute myocardial ischemia (N-ST)” value ([4]; 15 min after drug) was 24.83 ± 2.04. For the same compound, the “degree of acute myocardial ischemia (Σ-ST)” value (shortened to “degree”) ([4]; 15 min after drug) was 182.00 ± 70.40 mv, the Σ-ST change rate ([4]; 15 min after drug) was 61.01 ± 20.89 % and the N-ST change rate ([4]; 30 min after drug) was 89.53 ± 15.49%. For the same compound, the “acute myocardial ischemia (N-ST)” value ([4]; 30 min after drug) was 25.33 ± 4.08, the “degree” value ([4]; 30 min after drug) was 149.83 ± 41.36 mv and the Σ-ST change rate ([4]; 30 min after drug) was 48.75 ± 9.99 %. The N-ST change rate ([4]; 45 min after drug) was 86.82 ± 14.83%, the “acute myocardial ischemia (N-ST)” value ([4]; 45 min after drug) was 23.17 ± 5.91 and the “degree” value ([4]; 45 min after drug) was 126.00 ± 47.35 mv. The Σ-ST change rate ([4]; 45 min after drug) was 42.43 ± 8.97 %, the N-ST change rate ([4]; 60 min after drug) was 87.48 ± 15.08% and the “acute myocardial ischemia (N-ST)” value ([4]; 60 min after drug) was 23.50 ± 4.85. For the same compound, the “degree” value ([4]; 60 min after drug) was 148.67 ± 71.87 mv, the Σ-ST change rate ([4]; 60 min after drug) was 47.78 ± 10.82 % and the N-ST change rate ([4]; 90 min after drug) was 81.41 ± 14.31 %. The “acute myocardial ischemia (N-ST)” value ([4]; 90 min after drug) was 21.50 ± 5.86, the “degree” value ([4]; 90 min after drug) was 140.17 ± 63.46 mv and the Σ-ST change rate ([4]; 90 min after drug) was 54.98 ± 18.57 %. For the same compound, the N-ST change rate ([4]; 120 min after drug) was 77.22 ± 16.49 %, the “acute myocardial ischemia (N-ST)” value ([4]; 120 min after drug) was 20.00 ± 6.00 and the “degree” value ([4]; 120 min after drug) was 139.00 ± 69.20 mv. For the same compound, the Σ-ST change rate ([4]; 120 min after drug) was 52.21 ± 19.91 %, the N-ST change rate ([4]; 180 min after drug) was 75.89 ± 19.59 % and the “acute myocardial ischemia (N-ST)” value ([4]; 180 min after drug) was 20.67 ± 5.99. For the same compound, the “degree” value ([4]; 180 min after drug) was 117.17 ± 54.27 mv, the Σ-ST change rate ([4]; 180 min after drug) was 45.99 ± 18.90 % and the “acute myocardial ischemia (N-ST)” value ([4]; before drug) was 28.67. The “degree” value ([4]; before drug) was 291.00 ± 40.39 mv, the Duration of arrhythmia [5] was 13.2 ± 6.0 min and the “Incidence rate of VF” value [5] was 0* %. The “Onset time of VP” value [5] was 15.0 ± 10.8 s, the “Onset time of VT” value [5] was 20 ± 8.8 s and the Heart rate ([5]; 5 min after BaCl2) was 327 ± 64 beat/min. It also gave a Heart rate ([5]; 10 min after BaCl2) of 360 ± 88 beat/min, a Heart rate ([5]; 20 min after BaCl2) of 381 ± 71 beat/min and a Heart rate ([5]; 30 min after BaCl2) of 399 ± 42 beat/min. The Heart rate ([5]; before BaCl2) was 397 ± 53 beat/min.

For `CC(C)=CCC[C@](C)(O)[C@H]1CC[C@]2(C)[C@@H]1[C@H](O)C[C@@H]1[C@@]3(C)CC[C@H](O[C@@H]4O[C@H](CO)[C@@H](O)[C@H](O)[C@H]4O[C@@H]4O[C@H](CO)[C@@H](O)[C@H](O)[C@H]4O)C(C)(C)[C@@H]3CC[C@]12C` [Ginsenoside Rg3], the anticancer activity (cancer cells) is given as “significant anticancer activity” and the “platelet aggregation induced by collagen or ADP” value (platelets) is given as “relatively strong inhibitory effects”.

In the case of `CC(C)=CCC[C@](C)(O)[C@H]1CC[C@]2(C)[C@@H]1[C@H](O)C[C@@H]1[C@@]3(C)CC[C@H](O)C(C)(C)[C@@H]3[C@@H](O[C@@H]3O[C@H](CO)[C@@H](O)[C@H](O)[C@H]3O)C[C@]12C` [Ginsenoside Rh1], the “conversion of fibrinogen to fibrin induced by thrombin” value (thrombin) is given as “significant inhibitory effects” and the anticancer activity (cancer cells) is given as “significant anticancer activity”.

In the case of `CC(C)=CCC[C@](C)(O)[C@H]1CC[C@]2(C)[C@@H]1[C@H](O)C[C@@H]1[C@@]3(C)CC[C@H](O[C@@H]4O[C@H](CO)[C@@H](O)[C@H](O)[C@H]4O)C(C)(C)[C@@H]3CC[C@]12C` [Rh2, ginsenoside Rh2], the anticancer activity (cancer cells) is given as “significant anticancer activity”.

For `CC(C)=CCC[C@](C)(O[C@@H]1O[C@H](CO[C@@H]2O[C@H](CO)[C@@H](O)[C@H](O)[C@H]2O)[C@@H](O)[C@H](O)[C@H]1O)[C@H]1CC[C@]2(C)[C@@H]1[C@H](O)C[C@@H]1[C@@]3(C)CC[C@H](O[C@@H]4O[C@H](CO)[C@@H](O)[C@H](O)[C@H]4O[C@@H]4O[C@H](CO)[C@@H](O)[C@H](O)[C@H]4O)C(C)(C)[C@@H]3CC[C@]12C` [ginsenoside-Rb1], the absorption rate [6] is listed as 1%.
